# Assay results from PMC3217161 (2011).
# Molecular target: D-xylose isomerase (Streptomyces pseudogriseolus, UniProt P24300)
# Experiment: competitive inhibition of D-xylose isomerization
# Format: biochemical
# D-xylose isomerase, sequence (P24300 2-388): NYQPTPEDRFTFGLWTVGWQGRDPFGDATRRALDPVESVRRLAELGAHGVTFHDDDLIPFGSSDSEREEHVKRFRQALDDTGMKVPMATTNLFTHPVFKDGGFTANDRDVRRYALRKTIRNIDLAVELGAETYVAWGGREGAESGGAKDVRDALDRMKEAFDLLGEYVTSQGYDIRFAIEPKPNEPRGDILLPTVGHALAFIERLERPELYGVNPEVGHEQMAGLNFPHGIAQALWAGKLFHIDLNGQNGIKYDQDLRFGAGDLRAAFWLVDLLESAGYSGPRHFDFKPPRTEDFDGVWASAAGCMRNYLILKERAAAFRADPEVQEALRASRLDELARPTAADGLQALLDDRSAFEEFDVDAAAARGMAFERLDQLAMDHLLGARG
smiles,measurement,value
"O=C[C@H](O)CO [DGA, D-glyceraldehyde]",Ki,3 mM
